{"source": "patent US20120258944A1", "about": "“ANTIOXIDANTS FOR USE IN THERAPY” (priority 2009, published 2012)", "key": {"[1]": {"conditions": "cited from earlier work; for Inhibited Rate of Linoleic Acid Peroxidation (Rinh): two-phase model, N-acetylcysteine in the aqueous phase"}, "[2]": {"tested_on": "human umbilical vein endothelial cells (HUVEC)", "assay": "Visual evaluation of HUVECs under the microscope (dislodging from the surface)", "conditions": "HUVEC", "method": "Cells were harvested and resuspended in supplemented medium 200 without phenol red. 50 000 cells were added in duplicates to 96-well plates. The compounds were tested on HUVECs according to the following concentrations.\nThe compounds were diluted in Medium 200 from the 0.1M stock solution. The toxic effects of the compounds were tested after 24 hrs, 48 hrs and 72 hrs.\nBy visually looking at the cells under the microscope and estimating the dislodging from the surface, the state of the cells was evaluated."}, "[3]": {"tested_on": "human neutrophils and PBMCs, rat neutrophils and PBMCs, human PLB-985 cell line", "assay": "Extracellular ROS, isoluminol luminescence, PMA or fMLF stimulated cells", "type": "cell-based", "conditions": "PMA or fMLF 30 ng/ml; compounds 120 to 0 microM; FIG. 1-4, 9-12, 14-17", "method": "(§1) Validation was performed by stimulating cells with PMA and fMLF. When treated with the antioxidants, altered level of ROS production from the cells was measured using luminometry. Both intracellular and extracellular effect on ROS on the cells was analyzed using isoluminol (extracellular) and luminol (intracellular when co-administered with SOD and catalase) (Dahlgren et al. “Respiratory burst in human neutrophils”, Journal of Immunological Methods 232 1999; 3-14).\nThe isoluminol reagent buffer was made of HBSS buffer (with Ca^2+), Isoluminol and HRP.\n(§2) 1) Add 25 microL of antioxidants to assay plate to get proper concentrations in a total reaction volume of 100 micro-L. 2) Add 25 microL of PMA (120 ng/ml) and fMLF (120 ng/ml) to assay plate to get concentration of 30 ng/ml in a total reaction volume of 100 microL. 3) Add 50 microL of cell suspension (2 million cells/ml) to each well. Immediately after addition of cell suspension initiate luminescence measurement; the reaction starts at once when the cells are added to the assay plate. Measurement points are taken at 1-minute intervals for 25 minutes. Data is presented as AUC (Area Under Curve) by a summary of all collected measurements for each well.\nFIG. 1: Extracellular ROS analyzed by Isoluminol induced luminescence in human Neutrophils. ROS induced with PMA (30 ng/ml) with 200, 100 or 0 microM NAC. Concentrations of compounds 120, 60, 30 and 0 microM final concentrations.\nFIG. 9: Extracellular ROS analyzed by Isoluminol induced luminescence in rat Neutrophils. ROS induced with PMA (30 ng/ml) with 200, 100 or 0 microM NAC. Concentrations of compounds 120, 60, 30 and 0 microM final concentrations.\nFIG. 11: Extracellular ROS analyzed by Isoluminol induced luminescence in human PLB-985 cell line. ROS induced with PMA (30 ng/ml) with 200, 100 or 0 microM NAC. Concentrations of compounds 120, 60, 30 and 0 microM final concentrations."}, "[4]": {"tested_on": "PLB985 cells", "assay": "Resazurin based in vitro toxicology assay (TOX8)", "type": "cell-based, human", "conditions": "PLB985, 3 hours, 120 μM", "method": "The viability of cells treated with the compounds was also analyzed using a Resazurin based in vitro Toxicology Assay Kit (SigmaAldrich TOX8). Resazurin systems measure the metabolic activity of living cell. Resazurin in its oxidized form (blue) is reduced (red) by living cells and the amount of dye conversion is measured fluorometrically or spectrophotometrically indicating the degree of cytotoxicity.\n1) 75 micro-l of PLB985 cells (1 million cells/ml) is mixed with 25 micro-l of Compounds 1, 2, 3 and D (480, 120, 15 and 0.48 micro-M) in a 96 well plate in duplicates. 2) 10 micro-L of Resazurin solution is added to each well and the plate is incubated at 37° C. for 3 hours. 3) Spectrophotometrical analysis is performed in plate reader at 600 and 690 nm.\nFIG. 18: Cell viability of compounds in human PLB-985 cell line. Concentrations of compounds 120; 60; 30; 3.75; 0.12 and […] final concentrations. Measurement that indicates cell cytotoxicity (In vitro toxicology assay, TOX-8). The bars show increased level of cytotoxicity (analysis of absorbance of 600 nm substracted with absorbance 690 nm)."}, "[5]": {"tested_on": "human Neutrophils and human PBMCs", "assay": "Intracellular ROS, luminol luminescence with SOD and catalase, PMA or fMLF stimulated cells", "type": "cell-based", "conditions": "PMA or fMLF 30 ng/ml; compounds 120, 60, 30 microM; FIG. 5-8", "method": "as §1\nThe luminol reagent buffer is made of HBSS buffer (with Ca^2+), luminol and SOD/Catalase.\nas §2\nFIG. 5: Intracellular ROS analyzed by Luminol (intracellular ROS) induced luminescence in human Neutrophils. ROS induced with PMA (30 ng/ml) with 200, 100 or 0 microM NAC. Concentrations of compounds 120, 60, 30 and 0 microM final concentrations.\nFIG. 6: Intracellular ROS analyzed by Luminol (intracellular ROS) induced luminescence in human Neutrophils. ROS induced with fMLF (30 ng/ml) with 200, 100 or 0 microM NAC. Concentrations of compounds 120, 60, 30 and 0 microM final concentrations.\nFIG. 7: Intracellular ROS analyzed by Luminol (intracellular ROS) induced luminescence in human PBMCs. ROS induced with PMA (30 ng/ml) with 200, 100 or 0 microM NAC. Concentrations of compounds 120, 60, 30 and 0 microM final concentrations.\nFIG. 8: Intracellular ROS analyzed by Luminol (intracellular ROS) induced luminescence in human PBMCs. […]"}, "[6]": {"tested_on": "human umbilical vein endothelial cells (HUVEC)", "assay": "XTT in vitro toxicology test in human umbilical vein endothelial cells", "type": "cell-based", "conditions": "for toxic concentration: HUVEC; for relative toxicity among the compounds: human endothelial cells, up to 72 hours", "method": "As a negative control, cells incubated with medium containing 0.5% DMSO (corresponding to the highest DMSO concentration above) was used. As a positive control, cells were incubated in the presence of 20% EtOH.\nAfter the incubation with the compounds, the wells were washed with PBS to remove substances which could interfere with the assay. 40 μl of fresh medium 200 without phenol red was added together with 10 μl XTT substance (according to the manufacturer's instructions). The plates were incubated for 8 hrs and the colour development was monitored by measuring the absorbance at 450 nm.\nAfter incubation, the number of viable cells was assessed by observing the amount of metabolized XTT (2,3-bis[2-methoxy-4-nitro-5-sulphophenyl]-2H-tetrazolium-5-carboxyanilide inner salt)."}, "[7]": {"tested_on": "kidney slice", "assay": "Organ model TBARS experiment (TBA-MDA assay) in kidney slices"}, "[8]": {"assay": "ABTS radical cation assay (TEAC) in aqueous PBS buffer", "conditions": "6.08 micro-M, PBS buffer pH 7.4, after 5 min", "method": "In order to investigate its aqueous phase performance, we thought that it would be interesting to determine its Trolox Equivalent Antioxidant Capacity (TEAC) (Free Rad. Biol. Med. 1999, 26, 1231-1237) which has been used to quantify the antioxidant activity of biological fluids, extracts and pure compounds. The TEAC value is defined as the concentration of Trolox which has an equivalent antioxidant potential as a 1 mM solution of the compound under investigation (Free Rad. Biol. Med. 1996, 20, 933-956).\nA 2,2′-azinobis(3-ethylbenzothiazoline-6 sulphonic acid radical cation (ABTS•+) assay was used to determine relative TEAC values. To a preformed solution of ABTS•+ in PBS buffer, pH 7.4, with an absorbance slightly above 0.7 were added various amounts (3-30 microM) of organoselenium compound 1, Trolox, sodium ascorbate and N-acetylcysteine. The absorbance at 734 inn was recorded immediately after mixing and then every minute for the next 8 minutes.\nAntioxidant activity as determined by the capacity of the antioxidant to decolorize the ABTS^+ radical cation was determined essentially as described in the literature (Acc. Chem. Res. 1986, 19, 194-201). […] In a typical experiment, the antioxidant (1.52 micro-L of a 3.00 mM solution in MeOH or water; final concentration=6.08 micro-M) was syringed into 0.750 mL of the ABTS^+ radical cation solution. After initial mixing, the absorbance was recorded every minute for the next eight minutes."}, "[9]": {"tested_on": "MG-63, HEK-293, SHSY-5y, MRC-5 and CaCo-2-cells", "assay": "Alamar Blue cell viability/proliferation assay", "type": "cell-based, human", "conditions": "60 micro-M, day 1 to day 7", "description": "Alamar Blue is a non-toxic metabolic indicator for viable cells. Following uptake, the dye becomes reduced and causes a change in the colour of the cell. The colour change correlates reasonably well with the number of living cells in the sample.\nCells w/o antioxidant were used as controls.\nAlamar Blue is a non-toxic metabolic indicator for viable cells. Upon uptake into the cell the dye becomes reduced and changes colour. The colour change correlates approximately with the number of living cells in the sample."}, "[10]": {"tested_on": "liver microsomes", "conditions": "cited from earlier work"}, "[11]": {"conditions": "coupled reductase method; cited from earlier work"}}, "data": [{"smiles": "CC[Te]c1nc(C)cc(C)c1O", "note": "[Comparative Compound 2]", "values": [{"measurement": "Inhibited Rate of Linoleic Acid Peroxidation (Rinh)", "setting": "[1]", "value": 22, "unit": "µM/h"}, {"measurement": "concentration at which cells were affected (visual)", "setting": "[2]; 24 hrs", "value": 500, "unit": "µM"}, {"measurement": "concentration at which cells were affected (visual)", "setting": "[2]; 48 hrs", "value": 200, "unit": "µM"}, {"measurement": "antioxidative effect on extracellular ROS", "setting": "[3]", "value": "less potent"}, {"measurement": "cell viability at highest concentration", "setting": "[4]", "value": "decrease in cell viability"}, {"measurement": "antioxidative effect on intracellular ROS", "setting": "[5]", "value": "lesser effect"}, {"measurement": "toxic concentration", "setting": "[6]; 24 hrs incubation", "value": 500, "unit": "µM"}, {"measurement": "toxic concentration", "setting": "[6]; 48 hrs incubation", "value": 200, "unit": "µM"}, {"measurement": "toxic concentration", "setting": "[6]; 72 hrs incubation", "value": 200, "unit": "µM"}, {"measurement": "relative toxicity among the compounds", "setting": "[6]", "value": "slightly more toxic than Compounds 1"}]}, {"smiles": "CCCCCCCC[Te]c1nc(C)cc(C)c1O", "note": "[Comparative Compound 3]", "values": [{"measurement": "Inhibited Rate of Linoleic Acid Peroxidation (Rinh)", "setting": "[1]", "value": 8, "unit": "µM/h"}, {"measurement": "concentration at which cells were affected (visual)", "setting": "[2]; 24 hrs", "value": 100, "unit": "µM"}, {"measurement": "antioxidative effect on extracellular ROS", "setting": "[3]", "value": "less potent"}, {"measurement": "cell viability at highest concentration", "setting": "[4]", "value": "decrease in cell viability"}, {"measurement": "antioxidative effect on intracellular ROS", "setting": "[5]", "value": "lesser effect"}, {"measurement": "toxic concentration", "setting": "[6]; 24 hrs incubation", "value": 100, "unit": "µM"}, {"measurement": "toxic concentration", "setting": "[6]; 48 hrs incubation", "value": 100, "unit": "µM"}, {"measurement": "toxic concentration", "setting": "[6]; 72 hrs incubation", "value": 100, "unit": "µM"}, {"measurement": "relative toxicity among the compounds", "setting": "[6]", "value": "most toxic compound"}]}, {"smiles": "Cc1cc2c(c(C)c1O)CC(C)[Se]2", "note": "(stereo not shown) [Compound 6]", "values": [{"measurement": "potency as inhibitor of TBARS production compared with references", "setting": "[7]", "value": "more potent inhibitors of TBARS production than Trolox and N-acetylcysteine"}, {"measurement": "concentration able to inhibit 50% of the TBARS formation in the control incubation", "setting": "[7]; re-oxygenation after Argon", "value": "sub-micromolar"}]}, {"smiles": "CC(=O)N[C@@H](CS)C(=O)O", "note": "[N-acetylcysteine]", "values": [{"measurement": "TEAC value", "setting": "[8]", "value": 2.4}]}, {"smiles": "Cc1c(C)c2c(c(C)c1O)CCC(C)(C(=O)O)O2", "note": "(stereo not shown) [Trolox]", "values": [{"measurement": "cell growth (Alamar Blue)", "setting": "[9]", "value": "normal cell growth patterns"}]}, {"smiles": "Oc1ccc2c(c1)CCO2", "note": "[X═O]", "values": [{"measurement": "inhibition of lipid peroxidation in liver microsomes", "setting": "[10]", "value": "not effective"}]}, {"smiles": "Oc1ccc2c(c1)CCS2", "note": "[X═S]", "values": [{"measurement": "inhibition of lipid peroxidation in liver microsomes", "setting": "[10]", "value": "not effective"}]}, {"smiles": "Oc1ccc2c(c1)CC[Se]2", "note": "[X═Se]", "values": [{"measurement": "inhibition of azo-initiated peroxidation of linoleic acid", "setting": "[1]; two-phase system, absence of thiol reducing agent", "value": "poor inhibitor"}, {"measurement": "catalyst activity in the reaction between glutathione and hydroperoxide (thiol peroxidase activity)", "setting": "[11]", "value": "insignificant"}, {"measurement": "inhibition of lipid peroxidation in liver microsomes", "setting": "[10]", "value": "not effective"}]}, {"smiles": "Oc1ccc2c(c1)CC[Te]2", "note": "[X═Te]", "values": [{"measurement": "antioxidant capacity", "setting": "[1]; two-phase system, presence of a reducing agent", "value": "best antioxidant capacity"}, {"measurement": "catalyst activity in the reaction between glutathione and hydroperoxide (thiol peroxidase activity)", "setting": "[11]", "value": "highly active catalyst"}, {"measurement": "inhibition of lipid peroxidation in liver microsomes", "setting": "[10]", "value": "potent inhibitor"}]}]}
